In US10239861B2, “Therapeutic compounds and uses thereof” (GENENTECH, INC., priority 2015, dated 2019) one finds IC50 data, which are given here for 41 compounds.

The experiment has as its target PCAF bromodomain (His/Flag epitope tagged PCAF719-832) (Homo sapiens (Human), UniProt Q92831). Description: PCAF AlphaLisa binding assay. How it is done:
IC50 Measurements for Inhibitors Using PCAF AlphaLisa Binding Assay
PCAF bromodomain binding and inhibition of the compounds disclosed herein was assessed by monitoring the engagement of biotinylated small molecule ligand (known to bind to the PCAF bromodomain) with the target using the AlphaLisa technology (Perkin-Elmer).
(In general: In Alpha technology, singlet oxygen from a donor bead excites a nearby acceptor bead.)

The mark [1] stands for this setting: AlphaLisa, PCAF bromodomain 225 nM, biotinylated small molecule ligand 6 nM, read-out: PCAF IC50.

The term IC50 denotes the midpoint of a concentration-inhibition curve.

Molecules are shown by their SMILES. Like-named read-outs stand apart in the source and are kept apart here.

Sequence of PCAF bromodomain (His/Flag epitope tagged PCAF719-832) (Q92831 719-832): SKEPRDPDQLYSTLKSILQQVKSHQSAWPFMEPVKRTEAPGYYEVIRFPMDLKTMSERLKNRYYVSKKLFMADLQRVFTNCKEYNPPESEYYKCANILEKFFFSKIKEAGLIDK

As to `CN1CCCCC(Nc2cnn(C)c(=O)c2Cl)C1` (racemic) [Example 1, 4-chloro-2-methyl-5-((1-methylazepan-3-yl)amino)pyridazin-3(2H)-one], the IC50 under setting [1] is 0.062 µM.

For `CN1CCCC(Nc2cnn(C)c(=O)c2Cl)CC1` (racemic) [Example 4, (racemic)-4-chloro-2-methyl-5-((1-methylazepan-4-yl)amino)pyridazin-3(2H)-one], the IC50 under setting [1] worked out at 0.187 µM.

For the compound `Cn1ncc(NC2CN3CCC2CC3)c(Cl)c1=O` (racemic) [Example 10, (racemic)-4-chloro-2-methyl-5-(quinuclidin-3-ylamino)pyridazin-3(2H)-one], the IC50 was 0.975 µM.

On to `Cn1ncc(NC2CCCOC2)c(Cl)c1=O` (racemic) [Example 11, (racemic)-4-chloro-2-methyl-5-((tetrahydro-2H-pyran-3-yl)amino)pyridazin-3(2H)-one], for which, under setting [1], the IC50 was found to be 1.02 µM.

Turning to `CN1CC(Nc2cnn(C)c(=O)c2Cl)CC(c2ccccc2)C1` (racemic) [Example 24, 4-chloro-2-methyl-5-((1-methyl-5-phenylpiperidin-3-yl)amino)pyridazin-3(2H)-one], the IC50 under setting [1] came to 0.167 µM.

Turning to `C[C@@H]1CC[C@@H](Nc2cnn(C)c(=O)c2Cl)CN1C` (stereo in doubt) [Example 26, 4-chloro-5-((1,6-dimethylpiperidin-3-yl)amino)-2-methylpyridazin-3(2H)-one], under setting [1], the IC50 worked out at 0.0348 µM.

As for `C[C@@H]1CC[C@H](Nc2cnn(C)c(=O)c2Cl)CN1C` (stereo in doubt) [Example 27, 4-chloro-5-((1,6-dimethylpiperidin-3-yl)amino)-2-methylpyridazin-3(2H)-one], under setting [1], the IC50 stood at 0.144 µM.

For `C[C@@H]1CC[C@@H](Nc2cnn(C)c(=O)c2Cl)CN1C` (stereo in doubt) [Example 28, 4-chloro-5-((1,6-dimethylpiperidin-3-yl)amino)-2-methylpyridazin-3(2H)-one], under setting [1], the IC50 was 0.175 µM.

`C[C@H]1CC[C@@H](Nc2cnn(C)c(=O)c2Cl)CN1C` (stereo in doubt) [Example 29, 4-chloro-5-((1,6-dimethylpiperidin-3-yl)amino)-2-methylpyridazin-3(2H)-one]: the IC50 under setting [1] came to 0.0485 µM.

With `CN1CCC(Nc2cnn(C)c(=O)c2Cl)CC1` [Example 2, 4-chloro-2-methyl-5-((1-methylpiperidin-4-yl)amino)pyridazin-3(2H)-one], the IC50 under setting [1] is 1.22 µM.

Turning to `CN1[C@@H]2CC[C@H]1C[C@@H](Nc1cnn(C)c(=O)c1Cl)C2` [Example 5, 4-chloro-2-methyl-5-(((1R,3r,5S)-8-methyl-8-azabicyclo[3.2.1]octan-3-yl)amino)pyridazin-3(2H)-one], under setting [1], the IC50 turned out to be 0.48 µM.

Regarding `CN1[C@@H]2CC[C@H]1C[C@H](Nc1cnn(C)c(=O)c1Cl)C2` [Example 6, 4-chloro-2-methyl-5-(((1R,3s,5S)-8-methyl-8-azabicyclo[3.2.1]octan-3-yl)amino)pyridazin-3(2H)-one], the IC50 under setting [1] came out at 0.492 µM.

For `Cn1ncc(NC2CCCN(c3ccccn3)C2)c(Cl)c1=O` (centres unmarked) [Example 9, 4-chloro-2-methyl-5-((1-(pyridin-2-yl)piperidin-3-yl)amino)pyridazin-3(2H)-one], the IC50 under setting [1] came to 0.403 µM.

For `Cc1c(NC2CCCCN(C)C2)cnn(C)c1=O` (centres unmarked) [Example 12, 2,4-dimethyl-5-((1-methylazepan-3-yl)amino)pyridazin-3(2H)-one], the IC50 under setting [1] was 0.165 µM.

As for `CN1CCCCC(Nc2cnn(C)c(=O)c2Br)C1` (centres unmarked) [Example 13, 4-bromo-2-methyl-5-((1-methylazepan-3-yl)amino)pyridazin-3(2H)-one], under setting [1], the IC50 came to 0.051 µM.

With `CC(C)n1ncc(NC2CCCCN(C)C2)c(Cl)c1=O` (centres unmarked) [Example 14, 4-chloro-2-isopropyl-5-((1-methylazepan-3-yl)amino)pyridazin-3(2H)-one], the IC50 under setting [1] was found to be 1.09 µM.

For `CCn1ncc(NC2CCCCN(C)C2)c(Cl)c1=O` (centres unmarked) [Example 15, 4-chloro-2-ethyl-5-((1-methylazepan-3-yl)amino)pyridazin-3(2H)-one], under setting [1], the IC50 was determined as 0.407 µM.

In the case of `CN1CCCCC(Nc2cnn(CC3CC3)c(=O)c2Cl)C1` (centres unmarked) [Example 16, 4-chloro-2-(cyclopropylmethyl)-5((1-methylazepan-3-yl)amino)pyridazin-3(2H)-one], under setting [1], the IC50 amounted to 0.421 µM.

For `C/C=C/Cn1ncc(NC2CCCCN(C)C2)c(Cl)c1=O` (centres unmarked) [Example 17, (E)-2-(but-2-en-1-yl)-4-chloro-5-((1-methylazepan-3-yl)amino)pyridazin-3(2H)-one], the IC50 under setting [1] came to 0.312 µM.

For the compound `CC1CCC(Nc2cnn(C)c(=O)c2Cl)CN1C` (centres unmarked) [Example 25, 4-chloro-5-((1,6-dimethylpiperidin-3-yl)amino)-2-methylpyridazin-3(2H)-one], the IC50 under setting [1] is 0.06 µM.

`COCCN1CCCC(Nc2cnn(C)c(=O)c2Cl)C1` (centres unmarked) [Example 30, 4-chloro-5-((1-(2-methoxyethyl)piperidin-3-yl)amino)-2-methylpyridazin-3(2H)-one]: the IC50 under setting [1] turned out to be 0.315 µM.

Take `Cn1ncc(NC2CCCN(C3COC3)C2)c(Cl)c1=O` (centres unmarked) [Example 31, 4-chloro-2-methyl-5-((1-(oxetan-3-yl)piperidin-3-yl)amino)pyridazin-3(2H)-one]: the IC50 under setting [1] was 1.22 µM.

Take `CC(C)N1CCCC(Nc2cnn(C)c(=O)c2Cl)C1` (centres unmarked) [Example 32, 4-chloro-5-((1-isopropylpiperidin-3-yl)amino)-2-methylpyridazin-3(2H)-one]: the IC50 under setting [1] worked out at 0.147 µM.

Consider `Cn1ncc(NC2CCCN(Cc3ccccn3)C2)c(Cl)c1=O` (centres unmarked) [Example 33, 4-chloro-2-methyl-5-((1-(pyridin-2-ylmethyl)piperidin-3-yl)amino)pyridazin-3(2H)-one], for which, under setting [1], the IC50 was determined as 1.98 µM.

As for `C[C@H](c1ccccc1)N1CCCC(Nc2cnn(C)c(=O)c2Cl)C1` (stereo partly drawn) [Example 35, 4-chloro-2-methyl-5-((1-((R)-1-phenylethyl)piperidin-3-yl)amino)pyridazin-3(2H)-one], the IC50 under setting [1] amounted to 0.671 µM.

Consider `C[C@@H](c1ccccc1)N1CCCC(Nc2cnn(C)c(=O)c2Cl)C1` (stereo partly drawn) [Example 36, 4-chloro-2-methyl-5-((1-((S)-1-phenylethyl)piperidin-3-yl)amino)pyridazin-3(2H)-one], for which, under setting [1], the IC50 amounted to 0.631 µM.

Turning to `Cn1ncc(N[C@@H]2CCCCN(Cc3ccccc3)C2)c(Cl)c1=O` [Example 37, (R)-5-((1-benzylazepan-3-yl)amino)-4-chloro-2-methylpyridazin-3(2H)-one], under setting [1], the IC50 came to 0.972 µM.

Take `Cn1ncc(N[C@H]2CCCCN(Cc3ccccc3)C2)c(Cl)c1=O` [Example 38, (S)-5-((1-benzylazepan-3-yl)amino)-4-chloro-2-methylpyridazin-3(2H)-one]: the IC50 under setting [1] came out at 3.77 µM.

Regarding `CN1Cc2ccccc2C[C@@H](Nc2cnn(C)c(=O)c2Cl)C1` [Example 39, (R)-4-chloro-2-methyl-5-((2-methyl-2,3,4,5-tetrahydro-1H-benzo[c]azepin-4-yl)amino)pyridazin-3(2H)-one], the IC50 under setting [1] is 0.102 µM.

As to `CN1CCCCCC(Nc2cnn(C)c(=O)c2Cl)C1` (centres unmarked) [Example 40, 4-chloro-2-methyl-5-((1-methylazocan-3-yl)amino)pyridazin-3(2H)-one], under setting [1], the IC50 was 0.155 µM.

Regarding `Cn1ncc(NC2CCCN(Cc3c(F)cccc3F)C2)c(Cl)c1=O` (centres unmarked) [Example 42, 4-chloro-5-((1-(2,6-difluorobenzyl)piperidin-3-yl)amino)-2-methylpyridazin-3(2H)-one], the IC50 under setting [1] was found to be 1 µM.

Turning to `CN(C)c1ccc(CN2CCCC(Nc3cnn(C)c(=O)c3Cl)C2)cc1` (centres unmarked) [Example 43, 4-chloro-5-[[1-[(4-dimethylaminophenyl)methyl]-3-piperidyl]amino]-2-methyl-pyridazin-3-one], the IC50 under setting [1] amounted to 0.31 µM.

As for `Cn1ncc(NC2CCCN(Cc3cccc(OC(F)F)c3)C2)c(Cl)c1=O` (centres unmarked) [Example 44, 4-chloro-5-[[1-[[3-(difluoromethoxy)phenyl]methyl]-3-piperidyl]amino]-2-methyl-pyridazin-3-one], the IC50 under setting [1] came out at 0.0949 µM.

Regarding `Cn1ncc(NC2CCCN(Cc3ccc(-n4ccnc4)cc3)C2)c(Cl)c1=O` (centres unmarked) [Example 45, 4-chloro-5-[[1-[(4-imidazol-1-ylphenyl)methyl]-3-piperidyl]amino]-2-methyl-pyridazin-3-one], the IC50 under setting [1] is 0.386 µM.

As for `Cn1ncc(NC2CCCN(Cc3cc(Cl)cc(Cl)c3)C2)c(Cl)c1=O` (centres unmarked) [Example 46, 4-chloro-5-((1-(3,5-dichlorobenzyl)piperidin-3-yl)amino)-2-methylpyridazin-3(2H)-one], the IC50 under setting [1] was determined as 0.278 µM.

Turning to `Cn1ncc(NC2CCCN(Cc3ccccc3N3CCOCC3)C2)c(Cl)c1=O` (centres unmarked) [Example 47, 4-chloro-2-methyl-5-[[1-[(2-morpholinophenyl)methyl]-3-piperidyl]amino]pyridazin-3-one], the IC50 under setting [1] amounted to 0.921 µM.

Turning to `Cn1ncc(NC2CCCN(Cc3ncc[nH]3)C2)c(Cl)c1=O` (centres unmarked) [Example 48, 4-chloro-5-[[1-(1H-imidazol-2-ylmethyl)-3-piperidyl]amino]-2-methyl-pyridazin-3-one], under setting [1], the IC50 amounted to 0.379 µM.

For the compound `Cn1ncc(NC2CCCN(Cc3c[nH]cn3)C2)c(Cl)c1=O` (centres unmarked) [Example 49, 4-chloro-5-[[1-(1H-imidazol-4-ylmethyl)-3-piperidyl]amino]-2-methyl-pyridazin-3-one], under setting [1], the IC50 was 0.178 µM.

In the case of `Cn1ncc(NC2CCCN(Cc3cncnc3)C2)c(Cl)c1=O` (centres unmarked) [Example 50, 4-chloro-2-methyl-5-[[1-(pyrimidin-5-ylmethyl)-3-piperidyl]amino]pyridazin-3-one], under setting [1], the IC50 was 0.625 µM.

Regarding `Cn1cc(CN2CCCC(Nc3cnn(C)c(=O)c3Cl)C2)cn1` (centres unmarked) [Example 51, 4-chloro-2-methyl-5-[[1-[(1-methylpyrazol-4-yl)methyl]-3-piperidyl]amino]pyridazin-3-one], under setting [1], the IC50 came out at 0.371 µM.

`Cn1ccnc1CN1CCCC(Nc2cnn(C)c(=O)c2Cl)C1` (centres unmarked) [Example 52, 4-chloro-2-methyl-5-((1-((1-methyl-1H-imidazol-2-yl)methyl)piperidin-3-yl)amino)pyridazin-3(2H)-one]: the IC50 under setting [1] stood at 1.41 µM.
